Where two headings read alike, the source gives them in different places.
Columns and labels:
[1] = test system: human pancreatic cancer (BX PC3) cells; conditions: 200 micromolar, 24 hours
[2] = test system: human pancreatic cancer (BXPC3) cells
Method: In this example, human pancreatic cancer (BXPC3) cells were grown on microscope slides for 24 hours prior to administration of test articles. […] Imaging was at 10× with photographs taken once every five minutes.
The timeline proceeds from left to right.

HCT-116 cells = conditions: HCT-116 2-D, 72 hours
Method: Cells were incubated for 72 hours in a 37° C./5% CO2 incubator. […] At the conclusion of the 72-hour timepoint, cells were labeled with 6 μL/mL MitoTracker Deep Red and 1:250 Viability Dye.
Following labeling, cells were fixed in 10% neutral buffer formalin and permeabilized with 0.2% Triton X-100 in 1×PBS. Cells were then labeled with 1:500 Hoechst 33342 Ready Flow™ Reagent And 5 μL/mL Alexa Fluor 488 phalloidin.
Cells were then imaged at 20× widefield using a Molecular Devices ImageXpress Micro Confocal High-Content imaging platform. The scan laser/dichromic settings were tuned for 405, 488, 647, and 730 nm excitation wavelengths. Images were acquired and saved as 16-bit 2048×2048 TIF files for further processing. A grid of the sites at well centers was acquired during image capture.
The images were then analyzed using nuclear, phalloidin, and MitoTracker Channels. The number of cells was determined for each. Viable and non-viable cells were determined using colocalization of the nuclear channel and the viability dye images after thresholding. Phalloidin and MitoTracker cell object intensity distributions were quantified using cellular objects positive for phalloidin and MitoTracker. Statistical analysis was performed using GraphPad Prism statistical software. Nonlinear regression was used as a curve fitting tool to determine compound efficacy.

[3] = test system: A549, HL-60, Raji B, Panc-1, and PC3 cancer cell lines; conditions: 4-5 h period, 5 cell lines
BXPC3 cells = test system: BXPC3 cells
Excerpt: Molecular crowding occurs when high concentrations of macromolecules reduce the volume of solvent available for other molecules in the solution, effecting the properties of cellular water. […] An increase in dry mass on addition of drug to the cells reflects uptake of the conjugate into the intracellular space. […] The method has been used to evaluate a dose response relationship and the characteristic response patterns of specific cell types to selected polyethylene glycol fatty acid conjugated structures.

[4] = test system: PDX derived cell line models (pancreatic cancer patients) in co-culture with human dermal fibroblasts; experiment: Cypre 3D Oncology in vitro patient-derived xenograft (PDX) Panel (Example 11); type: cell-based; conditions: treated four days, 5 patients
Method: In this example, a Cypre PDX assay was carried out in 5 different pancreatic cancer patients using 5 test compounds. […] The endpoint from this assay was tumor size and DRAQ7 staining.
PDX Tumor cells were expanded in 2D cell culture and then grown in 3D hydrogels, co-embedded with human dermal fibroblasts (HDF). […] After, 3D assays were stained with Hoechst and DRAQ7, fixed, and analyzed using a high content imager and proprietary image analysis software.

HCT-116 spheroids = experiment: HCT-116 spheroid viability / mitochondrial staining, high-content imaging (Example 1); type: cell-based; conditions: 72 hours
Method: Monolaurin was also similarly compared as a non-pegylated Lauric acid control.
HCT-116 cells were cultured according to ATCC guidelines and spheroids containing the cells were incubated in plate maps. […] After 72 hours of incubation, the images were taken at 10× with a 25-step z-stack in […] on a Molecular Devices imager.
On the day of dosing, C12 (C12=C12-Ether-PEG-1000), C-18 (C18=C18-amide-PEG-1000) and monolaurin were reconstituted in DMSO to make stock solutions of 60 mM. Lauric Acid and Polyethylene Glycol were also reconstituted in DMSO to make stock solutions of 120 mM. C-12, C-18 and monolaurin stock solutions were then serially diluted at half-log steps in DMSO and then diluted 100× in maintenance media. Lauric Acid and monomethoxy polyethylene glycol MW 1000 (PEG) were serially diluted in DMSO and then diluted 200× in maintenance media. Dosing done according to manufacturer's protocol.
DMSO concentrations were kept consistent across all wells at 0.5%. Following dosing, Plate 1 & 2 were incubated in a 37° C., 5% CO2 incubator for 72 hours. Plate 1 was removed from incubation between 60 and 180 min timepoints for imaging. Well A05 in Plate 1 was imaged in bright field at 10× while incubated in the imager at 37° C. Images were taken at 5-minute intervals for 120 mins. Following imaging, Plate 1 was immediately placed back into 37° C., 5% C02 incubator. […]

polyethylene glycol octadecyl ether [C18-Ether-PEG-1000]
number of cells in clusters vs no drug control [1]: significantly reduced | effect on cells ([2]; 100 μM and 200 μM, 24 hours of incubation): drastic with both concentrations | cell kill at lower vs higher concentration ([2]; 100 μM vs 200 μM, 24 hours): less cell kill at the lower concentration | effect on a cluster of cells ([2]; 200 μM, 1-hour period): membrane disruption and cell death | time to cell fragmentation after dosing ([2]; 200 uM, single cell): ≤ 60 min | MitoTracker intensities (HCT-116 cells): modest effect | concentration at which total cell death / death of all the cells occurred (HCT-116 cells): 50 µM | effects on cell viability (HCT-116 cells): strong effects on cell viability | cell death ([3]; 50 μM): 80% | cell death ([3]; 100 μM): 100% | time post dosing to membrane disruption leading to cell death (BXPC3 cells): ≤ 40 min | drop of cell mass (BXPC3 cells; first study (FIG. 17A)): 3 fold | time post dosing of phase drop in dry mass (BXPC3 cells; first study (FIG. 17A)): 30 to 50 min | cell mass decrease, factor (BXPC3 cells; repeat study (FIG. 17D)): 2 | time of major phase drop after the addition of the drug (BXPC3 cells; repeat study (FIG. 17D)): about 25 minutes

polyethylene glycol octadecyl ether [C18-Ether-PEG-5000]
DRAQ7 cell death assay: activity in comparison with standard of care [4]: equal to standard of care | Tumor Total area: activity in comparison [4]: equal to standard of care | cell destruction vs no drug control ([2]; 300 μM, 24 hours of incubation): completely destroyed | effect on existing cell mass / clusters ([2]; 300 μM, after 19 hours): dissociation of the accumulated mass and loss of cellular motility and death | kill kinetic ([2]; BXPC3, 300 μM (Example 3)): 19 h | MitoTracker intensities (HCT-116 cells): no effects | concentration at which total cell death / death of all the cells occurred (HCT-116 cells): 100 µM

CCCCCCCCCCCCCCCCCCNc1c(NCCOCCOCCOCCOCCOCCOCCOCCOCCOCCOCCOCCOCCOCCOCCOCCOCCOCCOCCOCCOCCOCCOC)c(=O)c1=O [C18-Squaramide-PEG-1000, 3-((2,5,8,11,14,17,20,23,26,29,32,35,38,41,44,47,50,53,56,59,62,65-docosaoxa-heptahexacontan-67-yl)amino)-4-(octadecylamino)cyclobut-3-ene-1,2-dione]
Tumor Total area: activity in comparison [4]: similarity in activity

CCCCCCCCCCCC(=O)O [Lauric Acid]
effect on cell viability, treatment vs control (HCT-116 spheroids): no difference between treatment and control

— patent US20260273076A1, “PHARMACEUTICAL COMPOSITIONS AND METHOD OF TREATMENT OF METASTATIC AND OTHER CANCERS” (Favorite Pharmaceuticals, priority 2023, published 2026)
